Our source for the EC50 values is US20240150330A1, “CHROMANS AND BENZOFURANS AS 5-HT1A AND TAAR1 AGONISTS” (Sunovion Pharmaceuticals Inc., priority 2021, published 2024).

In general, EC50 refers to the concentration at which the effect is half-maximal. Lower therefore signals higher potency in that assay.

This experiment deals with T1, TAAR1 receptor (UniProt Q96RJ0).
T1 sequence (Q96RJ0 1-339): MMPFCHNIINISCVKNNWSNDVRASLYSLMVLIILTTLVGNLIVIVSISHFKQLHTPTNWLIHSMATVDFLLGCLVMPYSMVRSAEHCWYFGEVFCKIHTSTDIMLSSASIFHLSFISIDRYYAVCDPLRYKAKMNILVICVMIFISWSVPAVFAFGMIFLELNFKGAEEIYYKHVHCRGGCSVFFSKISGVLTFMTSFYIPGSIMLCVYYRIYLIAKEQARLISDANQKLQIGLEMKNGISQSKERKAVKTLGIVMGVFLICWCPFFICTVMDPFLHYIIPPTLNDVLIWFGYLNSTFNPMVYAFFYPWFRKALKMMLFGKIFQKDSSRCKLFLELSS
Put plainly: TAAR1 Agonist cAMP Assay. It is filed as cell-based, human or mouse. The following applies: CHO-K1 cells expressing TAAR1; cAMP HTRF; 30 minutes at room temperature. As for the experimental part:
CHO-K1 cells expressing the human TAAR1 receptor (Accession number NP_612200.1) or mouse TAAR1 receptor (Accession number NP_444435.1) were grown in media (Advanced DMEM supplemented with 1% dialyzed fetal bovine serum) without antibiotics. The cells were detached by gentle flushing with phosphate buffered saline containing 5 mM EDTA, recovered by centrifugation and resuspended in assay buffer (Krebs-Ringers Henseleit buffer: 5 mM KCl, 1.25 mM MgSO4, 124 mM NaCl, 25 mM HEPES, 13.3 mM Glucose, 1.25 mM KH2PO4, 1.45 mM CaCl2, 0.5 g/L BSA, supplemented with 1 mM isobutylmethylxanthine). Testing was performed in 384-well plates. 5 μl of cells (3000 cells) were mixed with 5 μl of the test compound diluted in assay buffer and then incubated for 30 minutes at room temperature. cAMP levels were determined using the Cisbio cAMP Gs dynamic HTRF kit (Cisbio, Bedford, MA). The results of the testing are shown in Table 3, with EC50 ranges designated as follows: • A=0.1 μM to 1 μM • B=0.01 μM to <0.1 μM • C=0.001 μM to <0.01 μM • D=0.0001 μM to <0.001 μM
In general terms: Time-resolved FRET reads energy transfer from a long-lived donor to a nearby acceptor.
`CNCC1CCOc2c(-c3cnccc3C)cccc21` (stereo in doubt) [Compound 6, (R)—N-methyl-1-(8-(4-methylpyridin-3-yl)chroman-4-yl)methanamine] yielded an EC50 of 1 to 10 nM.

Take `Cc1ccncc1-c1cccc2c1OCC[C@H]2CN` [Compound 5, (R)-(8-(4-methylpyridin-3-yl)chroman-4-yl)methanamine]: the 50% effective concentration (EC50) lay in the range of 1 to 10 nM.

In the case of `NC[C@@H]1CCOc2c(-c3ccc(C(F)(F)F)nc3)cccc21` [Compound 7, 1-[(4R)-8-[6-(trifluoromethyl)pyridin-3-yl]-3,4-dihydro-2H-1-benzopyran-4-yl]methanamine], the half-maximal effective concentration (EC50) was 10 to 100 nM.

The molecule `CNC[C@@H]1CCOc2c(-c3ccc(C(F)(F)F)nc3)cccc21` [Compound 8, methyl({[(4R)-8-[6-(trifluoromethyl)pyridin-3-yl]-3,4-dihydro-2H-1-benzopyran-4-yl]methyl})amine] yielded a concentration for a half-maximal effect (EC50) of 10 to 100 nM.

`NC[C@@H]1CCOc2c(-c3ccnc(C(F)(F)F)c3)cccc21` [Compound 9, 1-[(4R)-8-[2-(trifluoromethyl)pyridin-4-yl]-3,4-dihydro-2H-1-benzopyran-4-yl]methanamine]: the EC50 lay within 0.1 to 1 nM.

`CNC[C@@H]1CCOc2c(-c3ccnc(C(F)(F)F)c3)cccc21` [Compound 10] registered a 50% effective concentration (EC50) of 1 to 10 nM.

With `COc1cnccc1-c1cccc2c1OCC[C@H]2CN` [Compound 11, [(4R)-8-(3-methoxypyridin-4-yl)-3,4-dihydro-2H-1-benzopyran-4-yl]methanamine], the concentration giving a half-maximal response (EC50) was in the range of 1 to 10 nM.

For the molecule `CNC[C@@H]1CCOc2c(-c3ccncc3OC)cccc21` [Compound 12, (R)-1-(8-(3-methoxypyridin-4-yl)chroman-4-yl)-N-methylmethanamine], the EC50 is 100 to 1000 nM.

For the molecule `Cc1ccc(-c2cccc3c2OCC[C@H]3CN)cn1` [Compound 13, (R)-(8-(6-methylpyridin-3-yl)chroman-4-yl)methanamine], the EC50 lay in the range of 0.1 to 1 nM.

Consider `CNC[C@@H]1CCOc2c(-c3ccc(C)nc3)cccc21` [Compound 14, (R)—N-methyl-1-(8-(6-methylpyridin-3-yl)chroman-4-yl)methanamine], for which the 50% effective concentration (EC50) is 1 to 10 nM.

Regarding `Cc1cc(-c2cccc3c2OCC[C@@H]3CN)ccn1` [Compound 15, (S)-(8-(2-methylpyridin-4-yl)chroman-4-yl)methanamine], the EC50 lay within 1 to 10 nM.

On to `CNC[C@H]1CCOc2c(-c3ccnc(C)c3)cccc21` [Compound 16, (S)—N-methyl-1-(8-(2-methylpyridin-4-yl)chroman-4-yl)methanamine], for which the EC50 was 10 to 100 nM.

For the molecule `Cc1cc(-c2cccc3c2OCC[C@H]3CN)ccn1` [Compound 17, (R)-(8-(2-methylpyridin-4-yl)chroman-4-yl)methanamine], the half-maximal effective concentration (EC50) fell in the range of 1 to 10 nM.

For the molecule `CNC[C@@H]1CCOc2c(-c3ccnc(C)c3)cccc21` [Compound 18, (R)—N-methyl-1-(8-(2-methylpyridin-4-yl)chroman-4-yl)methanamine], the EC50 was 1 to 10 nM.

Regarding `Cc1cc(-c2cccc3c2OCC[C@H]3CN)c(C)cn1` [Compound 19, (R)-(8-(2,5-dimethylpyridin-4-yl)chroman-4-yl)methanamine], the EC50 was in the range of 1 to 10 nM.

For the molecule `Cc1cnccc1-c1cccc2c1OCC[C@H]2CN` [Compound 20, (R)-(8-(3-methylpyridin-4-yl)chroman-4-yl)methanamine], the half-maximal effective concentration (EC50) was in the range of 1 to 10 nM.

As to `CNC[C@@H]1CCOc2c(-c3ccncc3C)cccc21` [Compound 21, methyl({[(4R)-8-(3-methylpyridin-4-yl)-3,4-dihydro-2H-1-benzopyran-4-yl]methyl})amine], the half-maximal effective concentration (EC50) is 10 to 100 nM.

`NC[C@@H]1CCOc2c(-c3cccnc3)cccc21` [Compound 22] displayed an EC50 of 0.1 to 1 nM.

As for `NC[C@H]1CCOc2c(-c3cccnc3)cccc21` [Compound 24], the EC50 lay in the range of 10 to 100 nM.

As to `CNC[C@H]1CCOc2c(-c3cccnc3)cccc21` [Compound 25], the EC50 fell in the range of 10 to 100 nM.

The molecule `Cc1ncc(-c2cccc3c2OCC[C@H]3CN)cn1` [Compound 26] displayed an EC50 of 10 to 100 nM.

As to `Cc1ncccc1-c1cccc2c1OCC[C@H]2CN` [Compound 27], the EC50 was 10 to 100 nM.

Take `CNC[C@@H]1CCOc2c(-c3cccnc3C)cccc21` [Compound 28]: the EC50 lay within 10 to 100 nM.

Molecule `Cc1cc(C)c(-c2cccc3c2OCC[C@H]3CN)cn1` [Compound 29, 1-[(4R)-8-(4,6-dimethylpyridin-3-yl)-3,4-dihydro-2H-1-benzopyran-4-yl]methanamine] came in with an EC50 of 1 to 10 nM.

In the case of `Cc1nccc(-c2cccc3c2OCC[C@H]3CN)c1C` [Compound 30, (R)-(8-(2,3-dimethylpyridin-4-yl)chroman-4-yl)methanamine], the 50% effective concentration (EC50) was 10 to 100 nM.

In the case of `NC[C@@H]1CCOc2c(-c3cncnc3)cccc21` [Compound 31], the concentration for a half-maximal effect (EC50) is 1 to 10 nM.

In turn, `CNC[C@@H]1CCOc2c(-c3cncnc3)cccc21` [Compound 32] returned an EC50 of 1 to 10 nM.

As for `CNC[C@@H]1CCOc2c(-c3cc(C)ncc3C)cccc21` [Compound 33], the EC50 lay within 1 to 10 nM.

Consider `NC[C@@H]1CCOc2c(-c3cnccn3)cccc21` [Compound 34], for which the EC50 fell in the range of 10 to 100 nM.

For `CNC[C@@H]1CCOc2c(-c3cnccn3)cccc21` [Compound 35], the 50% effective concentration (EC50) was 10 to 100 nM.

In turn, `Cn1cncc1-c1cccc2c1OCC[C@H]2CN` [Compound 36] had an EC50 of 1 to 10 nM.

As for `CNC[C@@H]1CCOc2c(-c3cncn3C)cccc21` [Compound 37], the EC50 lay within 10 to 100 nM.

`NC[C@@H]1CCOc2c(-c3cncs3)cccc21` [Compound 38] came in with a concentration for a half-maximal effect (EC50) of 0.1 to 1 nM.

In the case of `CNC[C@@H]1CCOc2c(-c3cncs3)cccc21` [Compound 39], the EC50 lay in the range of 1 to 10 nM.

`NC[C@@H]1CCOc2c(-c3ccnnc3)cccc21` [Compound 40]: the EC50 was in the range of 1 to 10 nM.

The molecule `CNC[C@@H]1CCOc2c(-c3ccnnc3)cccc21` [Compound 41] yielded a 50% effective concentration (EC50) of 10 to 100 nM.

For `CNC[C@@H]1CCOc2c(-c3ccnc(C)c3C)cccc21` [Compound 42], the EC50 lay within 10 to 100 nM.

With `CNC[C@@H]1CCOc2c(-c3cnc(C)nc3)cccc21` [Compound 43], the EC50 is 100 to 1000 nM.

`NC[C@@H]1CCOc2c(-c3cnc[nH]3)cccc21` [Compound 44, 1-[(4R)-8-(1H-imidazol-5-yl)-3,4-dihydro-2H-1-benzopyran-4-yl]methanamine]: the 50% effective concentration (EC50) lay within 1 to 10 nM.

For the molecule `CNC[C@@H]1CCOc2c(-c3cnc[nH]3)cccc21` [Compound 45, {[(4R)-8-(1H-imidazol-5-yl)-3,4-dihydro-2H-1-benzopyran-4-yl]methyl}(methyl)amine], the EC50 was 1 to 10 nM.

`CNC[C@@H]1CCOc2c(-c3cnn(C)c3C)cccc21` [Compound 48] gave a concentration for a half-maximal effect (EC50) of 1 to 10 nM.

`CNC[C@@H]1CCOc2c(-c3cn(C)nc3C)cccc21` [Compound 49] registered an EC50 of 10 to 100 nM.

`CNC[C@@H]1CCOc2c(-c3cscn3)cccc21` [Compound 50] yielded an EC50 of 1 to 10 nM.

For `CNC[C@@H]1CCOc2c(-c3ccc(F)cc3)cccc21` [Compound 53, (R)-1-(8-(4-fluorophenyl)chroman-4-yl)-N-methylmethanamine], the 50% effective concentration (EC50) was in the range of 1 to 10 nM.

With `CNC[C@@H]1CCOc2c(-c3cnn(C)c3)cccc21` [Compound 54, (R)—N-methyl-1-(8-(1-methyl-1H-pyrazol-4-yl)chroman-4-yl)methanamine], the EC50 was in the range of 1 to 10 nM.

Regarding `CNC[C@@H]1CCOc2c(-c3ccn(C)n3)cccc21` [Compound 55, (R)—N-methyl-1-(8-(1-methyl-1H-pyrazol-3-yl)chroman-4-yl)methanamine], the half-maximal effective concentration (EC50) fell in the range of 10 to 100 nM.

As for `CNC[C@@H]1CCOc2c(-c3nccs3)cccc21` [Compound 56, (R)—N-methyl-1-(8-(thiazol-2-yl)chroman-4-yl)methanamine], the concentration giving a half-maximal response (EC50) was 10 to 100 nM.

Molecule `CNC[C@@H]1CCOc2c(-c3cnsc3)cccc21` [Compound 57, (R)-1-(8-(isothiazol-4-yl)chroman-4-yl)-N-methylmethanamine] registered a concentration for a half-maximal effect (EC50) of 1 to 10 nM.
